Molecules are shown by their SMILES.

As a reminder, the IC50 is the concentration at which inhibition is half-maximal. The low end stands for greater potency in that assay, the high end for weaker potency in that assay.

Test [1] has as its target KIT cytoplasmic domain (GST fused protein) (Homo sapiens (Human), UniProt P10721). As to the kind of experiment: Biochemical assay for inhibitors of KIT kinase activity. The following applies: 4 nM pre activated enzyme, 4.4 microM ATP, 60 minutes at r.t. The protocol: KIT cytoplasmic domain (aa 544-976end of the 976 aminoacid long full length sequence, accession number P10721 of UniProtKB/Swiss-Prot database) was cloned into pVL vector for expression in insect cells through the baculovirus system. The GST-KIT cytoplasmic domain has been expressed in Sf21 cells infected for 66 hrs at 27° C. The recombinant protein has been purified by affinity on GSH-sepharose and eluted with glutathione. […] General Principle-A specific peptidic substrate was trans-phosphorylated by the kinase in the presence of ATP traced with 33Pγ-ATP. At the end of the phosphorylation reaction, the not reacted ATP, cold and radioactive, was captured by an excess of dowex ion exchange resin that eventually settled by gravity to the bottom of the reaction plate. The supernatant was subsequently withdrawn and transferred into a counting plate that was then evaluated by β-counting. • ii. Dowex resin preparation-500 g of wet resin (SIGMA, custom prepared resin DOWEX 1×8 200-400 mesh, 2.5 Kg) were weighed out and diluted to 2 L in 150 mM sodium formate, pH 3.00. The resin was allowed to settle down overnight and then the supernatant was discarded. After three washes as above over a couple of days, the resin was allowed to settle and two volumes (with respect to the resin volume) were added of 150 mM sodium formate buffer. Biochemical Assay for Inhibitors of FLT3 Kinase Activity • i. Enzyme-The assay was performed using FLT3 cytoplasmic domain product and purified in house as GST fused protein. […] The peptide was purchased from American Peptide Company (Sunnyvale, Calif.). Biochemical Assay for Inhibitors of KIT Kinase Activity • i. Enzyme-The assay has been performed using KIT cytoplasmic domain product and purified in house as GST fused protein. […] NO: 2). The peptide was purchased from American Peptide Company (Sunnyvale, Calif.). Compound Testing • i. […] An automated station for serial dilutions (Biomek FX, Beckman) was used for producing 1:3 dilutions in 100% DMSO, from line A1 to A10, and for all the compounds in the column. […] The following dispensation into the plates plus 3 cycles of mixing, done by the robot itself, started the kinase reaction. At this point, the correct concentrations were restored for all the reagents. The robot incubated the plates for 60 minutes at r.t., and then stopped the reaction by pipetting 60 microL of dowex resin suspension into the reaction mix. In order to avoid tip clogging, wide bore tips were used to dispense the resin suspension. Three cycles of mixing were done immediately after the addition of the resin. Another mixing cycle was performed after all the plates were stopped, this time using normal tips: the plates were then allowed to rest for about one hour in order to allow resin sedimentation. […] Data Fitting-Data were analyzed by an internally customized version of the SW package “Assay Explorer” that provided sigmoidal fitting of the ten-dilutions curves for IC50 determination in the secondary assays/hit confirmation routines. Cell-Based Assays for Inhibitors of FLT3 Kinase Activity In vitro Cell Proliferation Assay for Inhibitors of FLT3 Kinase Activity

For test [2], the target named is FLT3 cytoplasmic domain (GST fused protein) (Homo sapiens (Human), UniProt P36888). Nature of the test: Biochemical assay for inhibitors of FLT3 kinase activity. The following applies: 2 nM pre activated enzyme, 254 microM ATP, 60 minutes at r.t. The protocol:
FLT3 cytoplasmic domain (aa 564-993end of the 993 aminoacid long full length sequence, accession number P36888 of UniProtKB/Swiss-Prot. database) was amplified by PCR starting from a testis cDNA library and then cloned into pVL vector for expression in insect cells through the baculovirus system. The GST-FLT3 cytoplasmic domain has been expressed in Sf21 cells infected for 72 hours at 27° C. The recombinant protein has been purified by affinity on GSH-sepharose and eluted with glutathione. A further purification step has been performed on heparine sepharose. […] General Principle-A specific peptidic substrate was trans-phosphorylated by the kinase in the presence of ATP traced with 33Pγ-ATP. At the end of the phosphorylation reaction, the not reacted ATP, cold and radioactive, was captured by an excess of dowex ion exchange resin that eventually settled by gravity to the bottom of the reaction plate. The supernatant was subsequently withdrawn and transferred into a counting plate that was then evaluated by β-counting. • ii. Dowex resin preparation-500 g of wet resin (SIGMA, custom prepared resin DOWEX 1×8 200-400 mesh, 2.5 Kg) were weighed out and diluted to 2 L in 150 mM sodium formate, pH 3.00. The resin was allowed to settle down overnight and then the supernatant was discarded. After three washes as above over a couple of days, the resin was allowed to settle and two volumes (with respect to the resin volume) were added of 150 mM sodium formate buffer. Biochemical Assay for Inhibitors of FLT3 Kinase Activity • i. Enzyme-The assay was performed using FLT3 cytoplasmic domain product and purified in house as GST fused protein. […] NO: 1). The peptide was purchased from American Peptide Company (Sunnyvale, Calif.). Biochemical Assay for Inhibitors of KIT Kinase Activity • i. Enzyme-The assay has been performed using KIT cytoplasmic domain product and purified in house as GST fused protein. […] NO: 2). The peptide was purchased from American Peptide Company (Sunnyvale, Calif.). Compound Testing • i. […] An automated station for serial dilutions (Biomek FX, Beckman) was used for producing 1:3 dilutions in 100% DMSO, from line A1 to A10, and for all the compounds in the column. […] The following dispensation into the plates plus 3 cycles of mixing, done by the robot itself, started the kinase reaction. At this point, the correct concentrations were restored for all the reagents. The robot incubated the plates for 60 minutes at r.t., and then stopped the reaction by pipetting 60 microL of dowex resin suspension into the reaction mix. In order to avoid tip clogging, wide bore tips were used to dispense the resin suspension. Three cycles of mixing were done immediately after the addition of the resin. Another mixing cycle was performed after all the plates were stopped, this time using normal tips: the plates were then allowed to rest for about one hour in order to allow resin sedimentation. […] Data Fitting-Data were analyzed by an internally customized version of the SW package “Assay Explorer” that provided sigmoidal fitting of the ten-dilutions curves for IC50 determination in the secondary assays/hit confirmation routines. Cell-Based Assays for Inhibitors of FLT3 Kinase Activity In vitro Cell Proliferation Assay for Inhibitors of FLT3 Kinase Activity

FLT3 cytoplasmic domain (GST fused protein), sequence (P36888 564-993): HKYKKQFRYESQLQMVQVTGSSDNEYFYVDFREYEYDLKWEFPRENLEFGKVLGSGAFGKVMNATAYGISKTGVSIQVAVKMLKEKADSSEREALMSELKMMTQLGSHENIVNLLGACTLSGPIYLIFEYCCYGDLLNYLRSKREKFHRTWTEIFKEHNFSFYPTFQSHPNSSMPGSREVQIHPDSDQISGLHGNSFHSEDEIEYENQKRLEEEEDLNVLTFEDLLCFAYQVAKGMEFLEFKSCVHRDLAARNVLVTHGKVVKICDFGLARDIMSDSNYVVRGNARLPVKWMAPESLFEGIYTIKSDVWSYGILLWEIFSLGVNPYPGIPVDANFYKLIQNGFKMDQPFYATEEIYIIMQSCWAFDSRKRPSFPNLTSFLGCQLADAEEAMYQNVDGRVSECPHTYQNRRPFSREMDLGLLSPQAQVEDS
KIT cytoplasmic domain (GST fused protein), sequence (P10721 544-976): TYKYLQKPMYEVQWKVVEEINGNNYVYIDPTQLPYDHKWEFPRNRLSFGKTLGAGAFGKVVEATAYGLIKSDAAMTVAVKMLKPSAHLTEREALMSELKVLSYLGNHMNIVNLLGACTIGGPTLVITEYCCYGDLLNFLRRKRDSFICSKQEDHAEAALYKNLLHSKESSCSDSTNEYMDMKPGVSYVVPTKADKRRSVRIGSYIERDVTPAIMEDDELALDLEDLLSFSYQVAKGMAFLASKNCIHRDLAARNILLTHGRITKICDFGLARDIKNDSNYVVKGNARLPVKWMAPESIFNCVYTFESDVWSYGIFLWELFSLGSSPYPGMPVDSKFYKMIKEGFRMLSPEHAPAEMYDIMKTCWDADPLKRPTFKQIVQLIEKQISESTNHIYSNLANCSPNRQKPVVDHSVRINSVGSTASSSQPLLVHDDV

With `CN(C)CCN(C)c1ccc(C(=O)Nc2n[nH]c3cc(OCCOCc4ccccc4)ccc23)cc1` [Cpd. 16, N-[6-(2-Benzyloxy-ethoxy)-1H-indazol-3-yl]-4-[(2-dimethylamino-ethyl)-methyl-amino]-benzamide], the figures for the IC50 in test [1] and in test [2] were 0.106 µM and less than 0.05 µM, respectively.
Taken in the same sequence, the figures for `CN1CCN(c2ccc(C(=O)Nc3n[nH]c4cc(OCCOc5ccccc5)ccc34)cc2)CC1` [Cpd. 10, 4-(4-Methyl-piperazin-1-yl)-N-[6-(2-phenoxy-ethoxy)-1H-indazol-3-yl]-benzamide] were 0.956 µM and less than 0.05 µM.
Taken in the same sequence, the figures for `CN1CCN(c2ccc(C(=O)Nc3n[nH]c4cc(Oc5ccc(OCc6ccccc6)cc5)ccc34)cc2)CC1` [Cpd. 4, N-[6-(4-Benzyloxy-phenoxy)-1H-indazol-3-yl]-4-(4-methyl-piperazin-1-yl)-benzamide] were more than 10 µM and 0.974 µM.
Take `CN(C)C1CCN(c2ccc(C(=O)Nc3n[nH]c4cc(OCCOCc5ccccc5)ccc34)cc2)CC1` [Cpd. 15, N-[6-(2-Benzyloxy-ethoxy)-1H-indazol-3-yl]-4-(4-dimethylamino-piperidin-1-yl)-benzamide]: the IC50 in test [1] is 0.076 µM; in test [2], less than 0.05 µM.
The corresponding values for `CN(C)CCCN(C)c1ccc(C(=O)Nc2n[nH]c3cc(OCCOCc4ccccc4)ccc23)cc1` [Cpd. 17, N-[6-(2-Benzyloxy-ethoxy)-1H-indazol-3-yl]-4-[(3-dimethylamino-propyl)-methyl-amino]-benzamide] are 0.146 µM and 0.062 µM.
Turning to `CN1CCN(c2ccc(C(=O)Nc3n[nH]c4cc(Oc5cccc(F)c5)ccc34)cc2)CC1` [Cpd. 3, N-[6-(3-Fluoro-phenoxy)-1H-indazol-3-yl]-4-(4-methyl-piperazin-1-yl)-benzamide], the IC50 in test [1] turned out to be 0.564 µM; in test [2], 0.639 µM.
Consider `CN1CCN(c2ccc(C(=O)Nc3n[nH]c4cc(Oc5ccccc5)ccc34)cc2)CC1` [Cpd. 2, 4-(4-Methyl-piperazin-1-yl)-N-(6-phenoxy-1H-indazol-3-yl)-benzamide], for which the concentration for half-maximal inhibition (IC50) turned out to be 0.172 µM in test [1] and 1.13 µM in test [2].
The corresponding values for `O=C(Nc1n[nH]c2cc(OCCOCc3ccccc3)ccc12)c1ccc(N2CC(N3CCCC3)C2)cc1` [Cpd. 28, N-[6-(2-Benzyloxy-ethoxy)-1H-indazol-3-yl]-4-(3-pyrrolidin-1-yl-azetidin-1-yl)-benzamide] are 0.306 µM and 0.136 µM.
The corresponding values for `CN1CCN(c2ccc(C(=O)Nc3n[nH]c4cc(OCc5cccc(Oc6ccccc6)c5)ccc34)cc2)CC1` [Cpd. 5, 4-(4-Methyl-piperazin-1-yl)-N-[6-(3-phenoxy-benzyloxy)-1H-indazol-3-yl]-benzamide] are 2.62 µM and 1.17 µM.
The corresponding values for `CN1CCC(CNc2ccc(C(=O)Nc3n[nH]c4cc(OCCOCc5ccccc5)ccc34)cc2)CC1` [Cpd. 27, N-[6-(2-Benzyloxy-ethoxy)-1H-indazol-3-yl]-4-[(1-methyl-piperidin-4-ylmethyl)-amino]-benzamide] are 0.091 µM and less than 0.05 µM.
Take `CN1CCC(Oc2ccc(C(=O)Nc3n[nH]c4cc(OCCOCc5ccccc5)ccc34)cc2)CC1` [Cpd. 22, N-[6-(2-Benzyloxy-ethoxy)-1H-indazol-3-yl]-4-(1-methyl-piperidin-4-yloxy)-benzamide]: the figures for the IC50 in test [1] and in test [2] were 0.055 µM and 0.056 µM, respectively.
For `C[N+]1([O-])CCN(c2ccc(C(=O)Nc3n[nH]c4cc(OCCOCc5ccccc5)ccc34)cc2)CC1` [Cpd. 14, N-[6-(2-Benzyloxy-ethoxy)-1H-indazol-3-yl]-4-(4-methyl-4-oxy-piperazin-1-yl)-benzamide], the IC50 in test [1] was 0.118 µM; in test [2] it was less than 0.05 µM.
For `CN1CCN(c2ccc(C(=O)Nc3n[nH]c4cc(OCC#Cc5ccccc5)ccc34)cc2)CC1` [Cpd. 7, 4-(4-Methyl-piperazin-1-yl)-N-[6-(3-phenyl-prop-2-ynyloxy)-1H-indazol-3-yl]-benzamide], the IC50 in test [1] worked out at 1.51 µM; in test [2] it was 0.249 µM.

The values are drawn from patent US9408850B2, “Substituted indazole derivatives active as kinase inhibitors” (NERVIANO MEDICAL SCIENCES S.R.L., priority 2011, dated 2016).
